Data reported in patent US20040253259A1, “Biological compositions and methods for treatment of kidney cancer” (priority 2003, published 2004).

What was measured:
Type in all cases: in vivo
[1] = tested on: complex cancer cells of kidney; assay: Syrian hamster model of human kidney cancer, tumor growth (Example 6); conditions: tumor-bearing hamsters, 30 consecutive days of treatment, sacrificed on 31st day from tumor inoculation
Description: The following example illustrates the benefit of a biological composition of the invention in a Syrian hamster model of human kidney cancer. The growth of the tumor in the hamsters was studied. Detailed description of the use of Syrian hamster to study kidney cancer can be found in, e.g., Liehr et al., 1991, Carcinogenesis 12:385-9, which is incorporated herein by reference in its entirety.
(§1) Complex cancer cells of kidney closely resembles the human kidney cancer pathology. See e.g., Modern Clinical Experimental Protocols, People's Republic of China Health Publishing House, 1997.
(§2) The biological composition comprising 10^8 cells per ml of activated and conditioned yeast cells of the strain Saccharomyces carlsbergensis Hansen strain AS2.189 was prepared by the methods described in Section 5.1 and subsections therein.
The animals used to generate the kidney cancer cells for the experiments were Syrian hamsters (obtainable from the Institute of Laboratory Animal Sciences, Chinese Academy of Medical Sciences, Beijing, China), an equal number of male and female, 5 to 6 months old, having an average body weight of 150 to 180 gram. […]
The hamsters received the biological compositions, untreated yeast cells, FUDR or saline on the same day as the tumor cells were transplanted. […] The weight of the hamsters and the weight of the tumor were determined by standard techniques.

[2] = tested on: complex cancer cells of kidney; assay: Syrian hamster model of human kidney cancer, survival time over 6 months (Example 7); conditions: for Number of live animals remaining in the groups after 30 days of treatment: 30 per group
Procedure: The following example illustrates the benefit of a biological composition of the invention in a Syrian hamster model of human kidney cancer. The survival time of hamsters after tumor injection and treatment was studied.
as §2
The animals were prepared in a similar manner as described in Section 6.1.
The hamsters injected with tumor cells were immediately divided into 4 experimental groups of ten hamsters per group and one control group. The four experimental groups were triplicated (i.e., using a total of 120 hamsters in the experimental groups). In group 2AY, the hamsters received 0.5 ml of the biological composition once per day. In group 2NY, the hamsters received 0.5 ml of the untreated yeast cells once per day. In group 2FUDR, the hamsters were injected subcutaneously with 0.6 mg of fluoruridine (FUDR) per kg body weight per day. In group 2CK1, the hamsters received 0.5 ml of physiological saline once per day.
(§3) The hamsters received the biological compositions, untreated yeast cells, FUDR or saline on the same day as the tumor cells were transplanted. The hamsters in group 2CK2 also started receiving saline on the same day as the other four groups. The biological compositions, untreated yeast cells and saline were administered orally by a feeding tube and the FUDR by subcutaneous injection for 30 consecutive days. The hamsters were observed over 6 months from the day of tumor inoculation and survival was recorded. The weight of the hamsters and the weight of the tumor were determined by standard techniques.

[3] = tested on: complex cancer cells of kidney; assay: Wistar rat model of human kidney cancer, tumor growth (Example 8); conditions: tumor-bearing rats, 30 consecutive days of treatment, sacrificed on 31st day from tumor inoculation
Description: (§4) The following example illustrates the benefit of a biological composition of the invention in a Wistar rat model of human kidney cancer. The growth of the tumor in the rats was studied.
as §1, §2
The animals used to generate the kidney cancer cells for the experiments were Wistar rats (obtainable from the Chinese Academy of Military Medical Sciences, Beijing, China) having an average body weight of about 180 to 200 gram. The complex cancer cells of kidney (obtainable from the Shanghai Medical University, Shanghai, China) were generated from a Wistar rat with kidney cancer that was induced by subcutaneous injection of bismaleimidohexane (BHM). […]
The rats received the biological compositions, untreated yeast cells, VCR or saline on the same day as the tumor cells were transplanted. […] The weight of the rats and the weight of the tumor were determined by standard techniques.

[4] = tested on: complex cancer cells of kidney; assay: Wistar rat model of human kidney cancer, survival over 6 months (Example 9); conditions: for Number of live animals remaining in the groups after 30 days of treatment: 30 per group
Procedure: as §4, §2
The animals were prepared in a similar manner as described in Section 8.1.
The rats injected with tumor cells were kept for 5 days and then were divided into 4 experimental groups of ten rats per group and one control group. The four experimental groups were triplicated (i.e., using a total of 120 rats in the experimental groups). In group 2AY, the rats received 0.8 ml of the biological composition once per day. In group 2NY, the rats received 0.8 ml of the untreated yeast cells once per day. In group 2VCR, the rats were injected intravenously with 3 mg of […] (VCR) per kg body weight per day. In group 2CK1, the rats received 0.8 ml of physiological saline once per day.
as §3, with “rats” for “hamsters”, “VCR” for “FUDR”, “intravenous” for “subcutaneous”

[5] = surviving hamsters, observed over 6 months
[6] = surviving rats, observed over 6 months

SMILES: O=c1[nH]c(=O)n([C@H]2C[C@H](O)[C@@H](CO)O2)cc1F [FUDR, fluoruridine]
- mean weight of hamsters and standard deviation [1]: 116.7 ± 4.9 g
- mean weight of tumor nodules and standard deviation [1]: 2.7 ± 1.2 mg
- Number of live animals remaining in the groups after 30 days of treatment ([2]; hamsters, 0 month after cessation of treatment): 30
- Number of live animals remaining in the groups after 30 days of treatment ([2]; hamsters, 1 month after cessation of treatment): 27
- Number of live animals remaining in the groups after 30 days of treatment ([2]; hamsters, 2 months after cessation of treatment): 11
- Number of live animals remaining in the groups after 30 days of treatment ([2]; hamsters, 3 months after cessation of treatment): 5
- Number of live animals remaining in the groups after 30 days of treatment ([2]; hamsters, 4 months after cessation of treatment): 0
- Number of live animals remaining in the groups after 30 days of treatment ([2]; hamsters, 5 months after cessation of treatment): 0
- Number of live animals remaining in the groups after 30 days of treatment ([2]; hamsters, 6 months after cessation of treatment): 0
- survival outcome during the experiment ([2]; hamsters, observed over 6 months): all died
- mean weight of hamsters and standard deviation [2, 5]: all animals dead
- mean weight of tumor nodules and standard deviation [2, 5]: all animals dead

SMILES: CC[C@]1(O)C[C@@H]2CN(CCc3c([nH]c4ccccc34)[C@@](C(=O)OC)(c3cc4c(cc3OC)N(C)[C@H]3[C@@](O)(C(=O)OC)[C@H](OC(C)=O)[C@]5(CC)C=CCN6CC[C@]43[C@@H]65)C2)C1 [VCR, vinblastine]
- mean weight of rats and standard deviation [3]: 189.6 ± 2.5 g
- mean weight of tumor nodules and standard deviation [3]: 3.7 ± 1.9 g
- Number of live animals remaining in the groups after 30 days of treatment ([4]; rats, 0 month after cessation of treatment): 30
- Number of live animals remaining in the groups after 30 days of treatment ([4]; rats, 1 month after cessation of treatment): 30
- Number of live animals remaining in the groups after 30 days of treatment ([4]; rats, 2 months after cessation of treatment): 30
- Number of live animals remaining in the groups after 30 days of treatment ([4]; rats, 3 months after cessation of treatment): 22
- Number of live animals remaining in the groups after 30 days of treatment ([4]; rats, 4 months after cessation of treatment): 13
- Number of live animals remaining in the groups after 30 days of treatment ([4]; rats, 5 months after cessation of treatment): 0
- Number of live animals remaining in the groups after 30 days of treatment ([4]; rats, 6 months after cessation of treatment): 0
- survival outcome during the experiment ([4]; rats, observed over 6 months): all died
- mean weight of rats and standard deviation [4, 6]: all animals dead
- mean weight of tumor nodules and standard deviation [4, 6]: all animals dead
